Reference: patent publication US20090143279A1 (priority 2007, published 2009)
Like-named read-outs stand apart in the source and are kept apart here.

Assays:
OXPHOS gene expression = assay type: cell-based, mouse; conditions: for GE-HTS (composite Z-score): normalized score vs mock-treated (DMSO) wells
[1] = system: cellular dehydrogenase activity; conditions: for MTT (composite Z-score): normalized score vs mock-treated (DMSO) wells
cytochrome c = assay type: cell-based, mouse; conditions: for cyt c (composite Z-score): normalized score vs mock-treated (DMSO) wells
C2C12 myotubes = conditions: for Viability (composite Z-score): normalized score vs mock-treated (DMSO) wells
mtOXPHOS transcripts = assay type: cell-based, mouse; conditions: for mitoOX (composite Z-score): normalized score vs mock-treated (DMSO) wells
[2] = system: mitochondrial membrane potential; assay type: cell-based, mouse; conditions: for ΔΨm (composite Z-score): normalized score vs mock-treated (DMSO) wells
reactive oxygen species = assay type: cell-based, mouse; conditions: for ROS (composite Z-score): normalized score vs mock-treated (DMSO) wells
nuOXPHOS transcripts = assay type: cell-based, mouse; conditions: for nucOX (composite Z-score): normalized score vs mock-treated (DMSO) wells
[3] = composite Z-score vs DMSO, Conc 20 μM
[4] = normalized composite Z-score vs mock-treated (DMSO) wells, Conc 20 μM

CC[C@@H](C(=O)[C@@H](C)[C@@H](O)[C@H](C)CCc1ccc(C)c(O)c1C(=O)O)[C@H]1O[C@](CC)([C@H]2CC[C@](O)(CC)[C@H](C)O2)C[C@@H]1C [lasalocid, reference compound] showed a GE-HTS (OXPHOS gene expression; [3]) of −1.524, an MTT [1, 3] of −1.771 and a cyt c (cytochrome c; [3]) of −1.690. It also gave a Viability (C2C12 myotubes; [3]) of −1.090, a mitoOX (mtOXPHOS transcripts; [3]) of −4.908 and a ΔΨm [2, 3] of −1.178. The ROS (reactive oxygen species; [3]) was −2.993 and the nucOX (nuOXPHOS transcripts; [3]) was 0.274.
In the case of COC(=O)c1c(C)c2c(c(C)c1OC)OC(=O)c1c(C)c(Cl)c(OC)c(Cl)c1O2 [leoidin dimethyl ether], the GE-HTS (OXPHOS gene expression; [4]) is reported as −1.008, the MTT [1, 4] is reported as −0.726 and the cyt c (cytochrome c; [4]) is reported as 1.032. For the same compound, the Viability (C2C12 myotubes; [4]) was 0.677, the mitoOX (mtOXPHOS transcripts; [4]) was −1.691 and the ΔΨm [2, 4] was −0.320. It also gave an ROS (reactive oxygen species; [4]) of −0.121 and a nucOX (nuOXPHOS transcripts; [4]) of −0.595.
For COC(=O)c1c(C)c2c(c(C)c1O)OC(=O)c1c(C)c(Cl)c(O)c(Cl)c1O2 [leoidin], the GE-HTS (OXPHOS gene expression; [3]) was −0.611, the MTT [1, 3] was 0.994 and the cyt c (cytochrome c; [3]) was 0.341. The Viability (C2C12 myotubes; [3]) was 0.035, the mitoOX (mtOXPHOS transcripts; [3]) was −0.638 and the ΔΨm [2, 3] was −1.352. It also gave an ROS (reactive oxygen species; [3]) of 1.481 and a nucOX (nuOXPHOS transcripts; [3]) of −0.523.
For CC1=CC(=O)C2=C(C)CC[C@@H]3[C@H](OC(=O)[C@H]3C)[C@@H]12 [leucodin], the “GE-HTS (composite Z-score)” value (OXPHOS gene expression; Conc 20 μM) was −0.300, the “MTT (composite Z-score)” value ([1]; Conc 20 μM) was −1.134 and the “cyt c (composite Z-score)” value (cytochrome c; Conc 20 μM) was −0.301. For the same compound, the “Viability (composite Z-score)” value (C2C12 myotubes; Conc 20 μM) was −0.525, the “mitoOX (composite Z-score)” value (mtOXPHOS transcripts; Conc 20 μM) was −0.261 and the “ΔΨm (composite Z-score)” value ([2]; Conc 20 μM) was −0.355. For the same compound, the “ROS (composite Z-score)” value (reactive oxygen species; Conc 20 μM) was 0.695 and the “nucOX (composite Z-score)” value (nuOXPHOS transcripts; Conc 20 μM) was −0.270.
For CC1=CC(=O)C2=C(C)CC[C@@H]3[C@H](OC(=O)[C@H]3C)[C@@H]12 [leucomisine], the “GE-HTS (composite Z-score)” value (OXPHOS gene expression; Conc 16.24 μM) was −0.450, the “MTT (composite Z-score)” value ([1]; Conc 16.24 μM) was −1.034 and the “cyt c (composite Z-score)” value (cytochrome c; Conc 16.24 μM) was −0.568. The “Viability (composite Z-score)” value (C2C12 myotubes; Conc 16.24 μM) was −0.439, the “mitoOX (composite Z-score)” value (mtOXPHOS transcripts; Conc 16.24 μM) was −0.470 and the “ΔΨm (composite Z-score)” value ([2]; Conc 16.24 μM) was 0.151. For the same compound, the “ROS (composite Z-score)” value (reactive oxygen species; Conc 16.24 μM) was 0.368 and the “nucOX (composite Z-score)” value (nuOXPHOS transcripts; Conc 16.24 μM) was −0.405.
In the case of CC1(C)O[C@H]2CC(=O)OC[C@]23[C@H]2CC[C@@]4(C)[C@H](c5ccoc5)OC(=O)[C@H]5O[C@]54[C@]2(C)C(=O)C[C@@H]13 [limonin], the GE-HTS (OXPHOS gene expression; [3]) is reported as −0.197, the MTT [1, 3] is reported as −1.564 and the cyt c (cytochrome c; [3]) is reported as 0.042. For the same compound, the Viability (C2C12 myotubes; [3]) was −0.818, the mitoOX (mtOXPHOS transcripts; [3]) was 0.127 and the ΔΨm [2, 3] was −0.668. The ROS (reactive oxygen species; [3]) was 1.165 and the nucOX (nuOXPHOS transcripts; [3]) was −0.317.
With CC(C)(C#N)O[C@@H]1O[C@H](CO)[C@@H](O)[C@H](O)[C@H]1O [linamarin] the “GE-HTS (composite Z-score)” value (OXPHOS gene expression; Conc 20 μM) was −1.024, the “MTT (composite Z-score)” value ([1]; Conc 20 μM) was −1.611 and the “cyt c (composite Z-score)” value (cytochrome c; Conc 20 μM) was −0.052. For the same compound, the “Viability (composite Z-score)” value (C2C12 myotubes; Conc 20 μM) was 0.796, the “mitoOX (composite Z-score)” value (mtOXPHOS transcripts; Conc 20 μM) was −1.232 and the “ΔΨm (composite Z-score)” value ([2]; Conc 20 μM) was −0.333. For the same compound, the “ROS (composite Z-score)” value (reactive oxygen species; Conc 20 μM) was −0.189 and the “nucOX (composite Z-score)” value (nuOXPHOS transcripts; Conc 20 μM) was −0.847.
Compound CCCCCc1c2c(cc(O)c1C(=O)O)OC(=O)c1c(cc(OC)cc1C(=O)CCCC)O2 [lobaric acid] has a GE-HTS (OXPHOS gene expression; [3]) of −0.455, an MTT [1, 3] of −0.427 and a cyt c (cytochrome c; [3]) of −0.020. The Viability (C2C12 myotubes; [3]) was 0.082, the mitoOX (mtOXPHOS transcripts; [3]) was −0.343 and the ΔΨm [2, 3] was −0.164. The ROS (reactive oxygen species; [3]) was 0.860 and the nucOX (nuOXPHOS transcripts; [3]) was −0.499.
C[C@@H]1[C@H]2[C@H](O[C@@H]3O[C@H](CO)[C@@H](O)[C@H](O)[C@H]3O)OC=C(C(=O)O)[C@H]2C[C@@H]1O [loganic acid] was tested, and the “GE-HTS (composite Z-score)” value (OXPHOS gene expression; Conc 20 μM) was −0.463, the “MTT (composite Z-score)” value ([1]; Conc 20 μM) was −0.538 and the “cyt c (composite Z-score)” value (cytochrome c; Conc 20 μM) was −0.485. For the same compound, the “Viability (composite Z-score)” value (C2C12 myotubes; Conc 20 μM) was 1.214, the “mitoOX (composite Z-score)” value (mtOXPHOS transcripts; Conc 20 μM) was −0.800 and the “ΔΨm (composite Z-score)” value ([2]; Conc 20 μM) was −0.193. The “ROS (composite Z-score)” value (reactive oxygen species; Conc 20 μM) was −0.346 and the “nucOX (composite Z-score)” value (nuOXPHOS transcripts; Conc 20 μM) was −0.274.
Compound O=C1CC[C@]23/C=C/C(=O)NCCCCNCCCNC(=O)/C=C/c4ccc(c2c4)O[C@@H]3C1 [lunarine] has a GE-HTS (OXPHOS gene expression; [3]) of −0.945, an MTT [1, 3] of −0.938 and a cyt c (cytochrome c; [3]) of 0.685. For the same compound, the Viability (C2C12 myotubes; [3]) was −0.579, the mitoOX (mtOXPHOS transcripts; [3]) was −0.856 and the ΔΨm [2, 3] was −0.795. It also gave an ROS (reactive oxygen species; [3]) of 0.385 and a nucOX (nuOXPHOS transcripts; [3]) of −0.880.
With C[C@@H]1C[C@H]2CC(=O)[C@H]3CCCN4CCC[C@H]2[C@]34C1 [lycopodine] the GE-HTS (OXPHOS gene expression; [3]) was −0.150, the MTT [1, 3] was −1.139 and the cyt c (cytochrome c; [3]) was −0.093. The Viability (C2C12 myotubes; [3]) was −0.466, the mitoOX (mtOXPHOS transcripts; [3]) was −0.411 and the ΔΨm [2, 3] was −0.239. For the same compound, the ROS (reactive oxygen species; [3]) was 0.500 and the nucOX (nuOXPHOS transcripts; [3]) was −0.028.
With Oc1ccc2c(c1)OC[C@H]1c3cc4c(cc3O[C@@H]21)OCO4 [maackiain] the “GE-HTS (composite Z-score)” value (OXPHOS gene expression; Conc 20 μM) was −0.561, the “MTT (composite Z-score)” value ([1]; Conc 20 μM) was −0.578 and the “cyt c (composite Z-score)” value (cytochrome c; Conc 20 μM) was 0.969. For the same compound, the “Viability (composite Z-score)” value (C2C12 myotubes; Conc 20 μM) was −1.052, the “mitoOX (composite Z-score)” value (mtOXPHOS transcripts; Conc 20 μM) was −1.049 and the “ΔΨm (composite Z-score)” value ([2]; Conc 20 μM) was 0.391. The “ROS (composite Z-score)” value (reactive oxygen species; Conc 20 μM) was 0.879 and the “nucOX (composite Z-score)” value (nuOXPHOS transcripts; Conc 20 μM) was −0.285.
